Laboratory results taken from PubChem BioAssay AID1963448 (Molecular Pharmacology Branch, DTP, NCI, 2024).
Each block holds one compound with its values, some of them ahead of it.

System: 616215-338-R-J1-PDC complex spheroid growth, % test/control
Assay: Anticancer human tumor 616215-338-R-J1-PDC patient-derived colon adenocarcinoma cell line growth inhibition [Asc]
Conditions: for IC50: curve of first compound; for viability, T/C: stronger effect = lower value
Summary of the method: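 Tumor cells were grown as complex spheroids with human endothelial cells (HUVEC) and human mesenchymal stem cells as stroma. Agents were tested alone and in combination, in half-log steps down from the clinical Cmax, or from 10 microM where Cmax was unknown.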
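Further: spheroids exposed to agents for seven days before readout.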
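Wherever viability, T/C is given: 100% = DMSO vehicle control viability.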

- IC50 (second compound 0.1 µM): > 10 µM
- IC50 (second compound 0.316 µM): > 10 µM
- IC50 (second compound 1 µM): 6.41 µM
- IC50 (second compound 3.16 µM): < 0.0316 µM
- IC50 (second compound 10 µM): < 0.0316 µM
Compound: C#Cc1c(F)ccc2cc(O)cc(-c3ncc4c(N5CC6CCC(C5)N6)nc(OCC56CCCN5CC(F)C6)nc4c3F)c12 (stereo not given) + Cc1c(S(C)(=O)=O)c(-c2cc(F)cc(N3CCN(c4ccc(NS(=O)(=O)c5ccc(NC(CCN6CCC(C(=O)OCCCP(=O)(O)O)CC6)CSc6ccccc6)c(S(=O)(=O)C(F)(F)F)c5)cc4)CC3)c2)c(-c2ccc(Cl)cc2)n1C(C)C
- viability, T/C (second compound 0.1 µM, first compound 0.0316 µM): 92.2%
- viability, T/C (second compound 0.1 µM, first compound 0.1 µM): 88.2%
- viability, T/C (second compound 0.1 µM, first compound 0.316 µM): 93.3%
- viability, T/C (second compound 0.1 µM, first compound 1 µM): 98.2%
- viability, T/C (second compound 0.1 µM, first compound 3.16 µM): 87.5%
- viability, T/C (second compound 0.1 µM, first compound 10 µM): 56.6%
- viability, T/C (second compound 0.316 µM, first compound 0.0316 µM): 96.6%
- viability, T/C (second compound 0.316 µM, first compound 0.1 µM): 91.9%
- viability, T/C (second compound 0.316 µM, first compound 0.316 µM): 88.8%
- viability, T/C (second compound 0.316 µM, first compound 1 µM): 97.4%
- viability, T/C (second compound 0.316 µM, first compound 3.16 µM): 72.1%
- viability, T/C (second compound 0.316 µM, first compound 10 µM): 52%
- viability, T/C (second compound 1 µM, first compound 0.0316 µM): 68.8%
- viability, T/C (second compound 1 µM, first compound 0.1 µM): 70%
- viability, T/C (second compound 1 µM, first compound 0.316 µM): 66.8%
- viability, T/C (second compound 1 µM, first compound 1 µM): 68.2%
- viability, T/C (second compound 1 µM, first compound 3.16 µM): 61.1%
- viability, T/C (second compound 1 µM, first compound 10 µM): 42.8%
- viability, T/C (second compound 3.16 µM, first compound 0.0316 µM): 39.5%
- viability, T/C (second compound 3.16 µM, first compound 0.1 µM): 38.8%
- viability, T/C (second compound 3.16 µM, first compound 0.316 µM): 40.3%
- viability, T/C (second compound 3.16 µM, first compound 1 µM): 39.6%
- viability, T/C (second compound 3.16 µM, first compound 3.16 µM): 34.1%
- viability, T/C (second compound 3.16 µM, first compound 10 µM): 9.96%
- viability, T/C (second compound 10 µM, first compound 0.0316 µM): 29.7%
- viability, T/C (second compound 10 µM, first compound 0.1 µM): 25.5%
- viability, T/C (second compound 10 µM, first compound 0.316 µM): 29.8%
- viability, T/C (second compound 10 µM, first compound 1 µM): 21.8%
- viability, T/C (second compound 10 µM, first compound 3.16 µM): 10.8%
- viability, T/C (second compound 10 µM, first compound 10 µM): 0.92%

- IC50 (second compound 0.1 µM): > 3 µM
- IC50 (second compound 0.316 µM): > 3 µM
- IC50 (second compound 1 µM): > 3 µM
- IC50 (second compound 3.16 µM): < 0.00949 µM
- IC50 (second compound 10 µM): < 0.00949 µM
Compound: Cc1nc(N2CCC3(CC2)COC(C)C3N)c(CO)nc1Sc1ccnc(N)c1Cl (stereo not given) + Cc1c(S(C)(=O)=O)c(-c2cc(F)cc(N3CCN(c4ccc(NS(=O)(=O)c5ccc(NC(CCN6CCC(C(=O)OCCCP(=O)(O)O)CC6)CSc6ccccc6)c(S(=O)(=O)C(F)(F)F)c5)cc4)CC3)c2)c(-c2ccc(Cl)cc2)n1C(C)C
- viability, T/C (second compound 0.1 µM, first compound 0.00949 µM): 97.8%
- viability, T/C (second compound 0.1 µM, first compound 0.03 µM): 102%
- viability, T/C (second compound 0.1 µM, first compound 0.0949 µM): 100%
- viability, T/C (second compound 0.1 µM, first compound 0.3 µM): 95.9%
- viability, T/C (second compound 0.1 µM, first compound 0.949 µM): 84.5%
- viability, T/C (second compound 0.1 µM, first compound 3 µM): 76.7%
- viability, T/C (second compound 0.316 µM, first compound 0.00949 µM): 96.7%
- viability, T/C (second compound 0.316 µM, first compound 0.03 µM): 92.8%
- viability, T/C (second compound 0.316 µM, first compound 0.0949 µM): 94.5%
- viability, T/C (second compound 0.316 µM, first compound 0.3 µM): 94.9%
- viability, T/C (second compound 0.316 µM, first compound 0.949 µM): 76.6%
- viability, T/C (second compound 0.316 µM, first compound 3 µM): 71.3%
- viability, T/C (second compound 1 µM, first compound 0.00949 µM): 68%
- viability, T/C (second compound 1 µM, first compound 0.03 µM): 67.8%
- viability, T/C (second compound 1 µM, first compound 0.0949 µM): 68.9%
- viability, T/C (second compound 1 µM, first compound 0.3 µM): 66.7%
- viability, T/C (second compound 1 µM, first compound 0.949 µM): 61.7%
- viability, T/C (second compound 1 µM, first compound 3 µM): 55.6%
- viability, T/C (second compound 3.16 µM, first compound 0.00949 µM): 38.2%
- viability, T/C (second compound 3.16 µM, first compound 0.03 µM): 38.4%
- viability, T/C (second compound 3.16 µM, first compound 0.0949 µM): 34.2%
- viability, T/C (second compound 3.16 µM, first compound 0.3 µM): 36.8%
- viability, T/C (second compound 3.16 µM, first compound 0.949 µM): 25.9%
- viability, T/C (second compound 3.16 µM, first compound 3 µM): 21.9%
- viability, T/C (second compound 10 µM, first compound 0.00949 µM): 29.4%
- viability, T/C (second compound 10 µM, first compound 0.03 µM): 25.6%
- viability, T/C (second compound 10 µM, first compound 0.0949 µM): 30.2%
- viability, T/C (second compound 10 µM, first compound 0.3 µM): 21.1%
- viability, T/C (second compound 10 µM, first compound 0.949 µM): 9.17%
- viability, T/C (second compound 10 µM, first compound 3 µM): 6.63%
